Laboratory results reported in the Deep4Chem optical property database.
Values belong to the compound of their own block, whether it stands above or below them.

Experiment: solvent given as SMILES

emission maximum (in O): 450 nm
Compound: NC(=O)C1=CN([C@H]2C[C@H](O)[C@@H](COP(=O)([O-])OP(=O)([O-])OC[C@H]3O[C@@H](n4cnc5c(N)ncnc54)C[C@@H]3O)O2)C=CC1

emission maximum (in C1CCCCC1): 295.77 nm
Compound: Cc1ccc(C)c(C)c1

emission maximum (in C1CCOC1): 468 nm
Compound: N#C/C(=C\c1ccc(C=C(c2ccccc2)c2ccccc2)cc1)c1ccccc1

Compound: c1ccc2c(-n3cnc4ccccc43)cccc2c1
emission maximum (in C1CCCCC1): 358 nm | emission maximum (in C1CCOC1): 359 nm | emission maximum (in CC#N): 362 nm | emission maximum (in CCO): 360 nm | emission maximum (in CCOC(C)=O): 361 nm | emission maximum (in CCOCC): 361 nm | emission maximum (in CO): 360 nm | emission maximum (in Cc1ccccc1): 359 nm | emission maximum (in ClC(Cl)Cl): 362 nm

Compound: CC1(C)OB(c2cc3ccc4cccc5ccc(c2)c3c45)OC1(C)C
emission maximum (in Cc1ccccc1): 386 nm

Compound: CN(C)c1ccc(-c2cc3c(ccc4c([N+](=O)[O-])cccc43)c(=O)o2)cc1
emission maximum (in CC(C)=O): 530 nm | emission maximum (in CCOC(C)=O): 624 nm | emission maximum (in CN(C)C=O): 546 nm | emission maximum (in CO): 548 nm | emission maximum (in ClC(Cl)Cl): 634 nm

emission maximum (in CCO): 421 nm
Compound: CC(C)Nc1cc2c(cc1F)c(=O)c1cc(F)c(NC(C)C)cc1n2C

emission maximum (in C1CCCCC1): 371 nm
Compound: CCC(C)(C)c1ccc2c(c1)C(CCOC)(CCOC)c1cc(-c3ccc4c(c3)C(CCOC)(CCOC)c3cc(C(C)(C)CC)ccc3-4)ccc1-2

emission maximum (in ClCCl): 484 nm
Compound: CCN(CC)c1ccc2cc(-c3ccc(-c4ccc(-c5cc6ccc(N(CC)CC)cc6oc5=O)cc4)cc3)c(=O)oc2c1

emission maximum (in ClC(Cl)Cl): 500 nm
Compound: CCCCCCN1C(=O)c2cccc3cc(/N=C\c4cn(C)c5ccccc45)cc(c23)C1=O

emission maximum (in ClCCl): 566 nm
Compound: F[B-]1(F)N2C=CN=CC2=[N+]2[N+]1=Cc1c(-c3ccccc3)cc(-c3cccs3)n1[B-]2(F)F

emission maximum (in C1CCOC1): 385 nm
Compound: c1ccc2c(c1)Cc1c-2sc2c1Cc1ccccc1-2

emission maximum (in CS(C)=O): 403 nm
Compound: O=C1CC(=O)Nc2cc([N+](=O)[O-])ccc2N1

emission maximum (in C1CCCCC1): 436 nm | emission maximum (in C1CCOC1): 446 nm | emission maximum (in CC#N): 449 nm | emission maximum (in ClC(Cl)Cl): 443 nm | emission maximum (in c1ccccc1): 444 nm
Compound: Cc1cc(C)c(B(c2c(C)cc(C)cc2C)c2cc3ccc4ccccc4c3c3c2ccc2ccccc23)c(C)c1

emission maximum (in c1ccccc1): 480 nm
Compound: Nc1ccc2nc(-c3ccccc3)c(=O)oc2c1

Compound: c1ccc2c(c1)Sc1ccccc1N2c1ccc2c(ccc3nc4ccc5cc(N6c7ccccc7Sc7ccccc76)ccc5c4nc32)c1
emission maximum (in C1CCCCC1): 543 nm | emission maximum (in Cc1ccccc1): 657 nm

emission maximum (in ClC(Cl)Cl): 696 nm
Compound: COc1ccc(N(c2ccc(OC)cc2)c2ccc(-c3ccc(C=C(C#N)C#N)cc3)cc2)cc1

emission maximum (in CC#N): 553 nm | emission maximum (in CCCCCC): 560 nm | emission maximum (in CCOC(C)=O): 556 nm | emission maximum (in CO): 550 nm | emission maximum (in ClCCl): 555 nm
Compound: COC1=[N+]2C(=C(c3ccccc3)c3cc(SC#N)c(OC)n3[B-]2(F)F)C=C1SC#N

Compound: CNc1cccc2c1C(=O)c1ccccc1C2=O
emission maximum (in C1CCC2CCCCC2C1): 565 nm | emission maximum (in C1CCCCC1): 563 nm | emission maximum (in CC1CCCCC1): 565 nm | emission maximum (in CC#N): 617 nm | emission maximum (in CCC(C)CC): 562 nm | emission maximum (in CCCCCC): 560 nm | emission maximum (in CCOC(C)=O): 600 nm

emission maximum (in ClC(Cl)Cl): 555 nm
Compound: CCn1c2ccccc2oc2c(C#N)c3oc4ccccc4oc3c(C#N)c21

emission maximum (in CC#N): 533 nm
Compound: COc1ccc(-c2nc3c([nH]2)C2=CC(=O)S[C@]2(C)[C@@]2(C)SC(=O)C=C32)cc1

emission maximum (in CCO): 441 nm
Compound: CN(C)c1cc2c(cc1F)c(=O)c1cc(F)c(N(C)C)cc1n2C

emission maximum (in ClCCl): 683 nm
Compound: C1=CC2C=c3c(cc4cccc5cc6ccccc6c3c45)C3=c4ccccc4=CC(=C1)C32 (stereo not given)

emission maximum (in ClC(Cl)Cl): 454 nm
Compound: Cc1c2c(c(C)c3ccccc13)-c1cc3nc4ccccc4nc3cc1-2

emission maximum (in ClCCl): 576 nm
Compound: COc1ccc2c(c1)CCc1c(-c3ccccc3)c3n(c1-2)[B-](F)(F)[N+]1=C2C=NC=CN2[B-](F)(F)[N+]1=C3

emission maximum (in CCO): 654 nm | emission maximum (in CS(C)=O): 655 nm | emission maximum (in O): 722 nm
Compound: CC1(C)C(/C=C/C=C/c2cc3ccc(O)cc3oc2=O)=[N+](CCCS(=O)(=O)[O-])c2ccc(S(=O)(=O)O)cc21
